In brackets after ≈: the same amount, converted by molar mass.
Key:
Enterococcus faecium [1] = experiment: Minimum inhibitory concentration against vancomycin-A Enterococcus faecium in the presence of 30% bovine serum (n=1) (range = 0.25-32mg/l); assay type: functional
Enterococcus faecalis [2] = experiment: Minimum inhibitory concentration against vancomycin-A Enterococcus faecalis in the presence of 30% bovine serum(n=4) (range = 0.5-8mg/L); assay type: functional
[3] = tested on: Staphylococcus epidermidis; experiment: Minimum inhibitory concentration against methicillin-sensitive Staphylococcus epidermidis in the presence of 30% bovine serum; assay type: functional
[4] = tested on: Staphylococcus haemolyticus; experiment: Minimum inhibitory concentration against Staphylococcus haemolyticus in the presence of 30% bovine serum; assay type: functional
[5] = tested on: Staphylococcus epidermidis; experiment: Minimum inhibitory concentration against methicillin-resistant Staphylococcus epidermidis in the presence of 30% bovine serum; assay type: functional
Enterococcus faecium [6] = experiment: Minimum inhibitory concentration against vancomycin-sensitive Enterococcus faecium in the presence of 30% bovine serum(n=1); assay type: functional
Enterococcus faecalis [7] = experiment: Minimum inhibitory concentration against vancomycin-sensitive Enterococcus faecalis in the presence of 30% bovine serum(n=3); assay type: functional
Staphylococcus aureus [8] = experiment: Minimum inhibitory concentration against methicillin-resistant Staphylococcus aureus
Staphylococcus aureus [9] = experiment: Minimum inhibitory concentration against methicillin-sensitive Staphylococcus aureus
Enterococcus faecalis [10] = experiment: Minimum inhibitory concentration against vancomycin-sensitive Enterococcus faecalis in the presence of 30% bovine serum(n=3)(range = 0.125 - 0.16 mg/l); assay type: functional
Enterococcus faecalis [11] = experiment: Minimum inhibitory concentration against vancomycin-A Enterococcus faecalis in the presence of 30% bovine serum (n=4) (Range = 0.125 - 16 mg/L); assay type: functional
Enterococcus faecium [12] = experiment: Minimum inhibitory concentration against vancomycin-A Enterococcus faecium in the presence of 30% bovine serum (n=1); assay type: functional
Enterococcus faecium [13] = experiment: Minimum inhibitory concentration against vancomycin-A Enterococcus faecium in the presence of 30% bovine serum (n=1) (range = 1>128mg/l); assay type: functional
Enterococcus faecalis [14] = experiment: Minimum inhibitory concentration against vancomycin-A Enterococcus faecalis in the presence of 30% bovine serum(n=4) (range = 16>128mg/L); assay type: functional
Enterococcus faecalis [15] = experiment: Minimum inhibitory concentration against vancomycin-sensitive Enterococcus faecalis in the presence of 30% bovine serum (n=3); assay type: functional
Enterococcus faecalis [16] = experiment: Minimum inhibitory concentration against vancomycin-A Enterococcus faecalis in the presence of 30% bovine serum(n=4) (range = 64-128mg/L); assay type: functional
Enterococcus faecium [17] = experiment: Minimum inhibitory concentration against vancomycin-A Enterococcus faecium in the presence of 30% bovine serum (n=1) (range = 64>128mg/L); assay type: functional
Enterococcus faecium [18] = experiment: Minimum inhibitory concentration against vancomycin-A Enterococcus faecium in the presence of 30% bovine serum (n=1) (range = 0.5-16mg/l); assay type: functional
Enterococcus faecalis [19] = experiment: Minimum inhibitory concentration against vancomycin-sensitive Enterococcus faecalis in the presence of 30% bovine serum (n=3) (range = <0.125-0.25); assay type: functional
Enterococcus faecalis [20] = experiment: Minimum inhibitory concentration against vancomycin-A Enterococcus faecalis (n=4) (range = 0.25-8mg/L)
Enterococcus faecalis [21] = experiment: Minimum inhibitory concentration against vancomycin-sensitive Enterococcus faecalis in the presence of 30% bovine serum (n=3) (range = 8-4); assay type: functional
Enterococcus faecium [22] = experiment: Minimum inhibitory concentration against vancomycin-A Enterococcus faecium in the presence of 30% bovine serum in the presence of 30% bovine serum (n=1); assay type: functional
Enterococcus faecalis [23] = experiment: Minimum inhibitory concentration against vancomycin-A Enterococcus faecalis in the presence of 30% bovine serum (n=4); assay type: functional
Enterococcus faecium [24] = experiment: Minimum inhibitory concentration against vancomycin-sensitive Enterococcus faecium in the presence of 30% bovine serum (n=1); assay type: functional

| SMILES | MIC [3] | MIC [4] | MIC [5] | MIC (Enterococcus faecium [6]) | MIC (Enterococcus faecalis [7]) | MIC (Staphylococcus aureus [8]) | MIC (Staphylococcus aureus [9]) | other results |
| --- | --- | --- | --- | --- | --- | --- | --- | --- |
| CN(C)CCCNC(=O)C1O[C@@H](Oc2c3cc4cc2Oc2ccc(cc2Cl)[C@@H](O)C2NC(=O)[C@H](NC(=O)[C@@H]4NC(=O)[C@H]4NC(=O)[C@@H](Cc5ccc(cc5)O3)NC(=O)[C@H](N(C)Cc3c[nH]c5ccccc35)c3ccc(O)c(c3)Oc3cc(O)c(Cl)c4c3)c3ccc(O)c(c3)-c3c(O[C@H]4O[C@H](CO)[C@@H](O)[C@H](O)[C@@H]4O)cc(O)cc3[C@@H](C(=O)NCCCN(C)C)NC2=O)C(NCc2c[nH]c3ccccc23)[C@@H](O)C1O (some centres undefined) | 1 µg/mL | 2 µg/mL | 2 µg/mL | 0.25 µg/mL | < 0.125 µg/mL | 1 µg/mL (≈ 0.506 µM) | 2 µg/mL (≈ 1.01 µM) | MIC (Enterococcus faecium [1]): 32 µg/mL; MIC (Enterococcus faecalis [2]): 8 µg/mL |
| CCCCCCOc1ccc(CNC2[C@H](Oc3c4cc5cc3Oc3ccc(cc3Cl)[C@@H](O)C3NC(=O)[C@H](NC(=O)[C@@H]5NC(=O)[C@H]5NC(=O)[C@@H](Cc6ccc(cc6)O4)NC(=O)[C@H](NC)c4ccc(O)c(c4)Oc4cc(O)c(Cl)c5c4)c4ccc(O)c(c4)-c4c(O[C@H]5O[C@H](CO)[C@@H](O)[C@H](O)[C@@H]5O)cc(O)cc4[C@@H](C(=O)NCCCN(C)C)NC3=O)OC(C(=O)NCCCN(C)C)C(O)[C@@H]2O)cc1OCC (some centres undefined) | < 0.125 µg/mL | 2 µg/mL |  | < 0.125 µg/mL |  |  | < 0.125 µg/mL | MIC (Enterococcus faecalis [10]): < 0.125 µg/mL; MIC (Enterococcus faecalis [11]): < 16 µg/mL; MIC (Enterococcus faecium [12]): > 16 µg/mL |
| CCCCn1cc(CNC2[C@H](Oc3c4cc5cc3Oc3ccc(cc3Cl)[C@@H](O)C3NC(=O)[C@H](NC(=O)[C@@H]5NC(=O)[C@H]5NC(=O)[C@@H](Cc6ccc(cc6)O4)NC(=O)[C@H](N(C)Cc4cn(CCCC)c6ccccc46)c4ccc(O)c(c4)Oc4cc(O)c(Cl)c5c4)c4ccc(O)c(c4)-c4c(O[C@H]5O[C@H](CO)[C@@H](O)[C@H](O)[C@@H]5O)cc(O)cc4[C@@H](C(=O)O)NC3=O)OC(C(=O)O)C(O)[C@@H]2O)c2ccccc21 (some centres undefined) | 4 µg/mL | 64 µg/mL | 32 µg/mL | < 0.125 µg/mL |  | 2 µg/mL (≈ 1.04 µM) | 4 µg/mL (≈ 2.08 µM) | MIC (Enterococcus faecium [13]): > 128 µg/mL; MIC (Enterococcus faecalis [14]): > 128 µg/mL; MIC (Enterococcus faecalis [15]): 0.25 µg/mL |
| CCCCc1ccc(CNC2[C@H](Oc3c4cc5cc3Oc3ccc(cc3Cl)[C@@H](O)C3NC(=O)[C@H](NC(=O)[C@@H]5NC(=O)[C@H]5NC(=O)[C@@H](Cc6ccc(cc6)O4)NC(=O)[C@H](NC)c4ccc(O)c(c4)Oc4cc(O)c(Cl)c5c4)c4ccc(O)c(c4)-c4c(O[C@H]5O[C@H](CO)[C@@H](O)[C@H](O)[C@@H]5O)cc(O)cc4[C@@H](C(=O)O)NC3=O)OC(C(=O)O)C(O)[C@@H]2O)cc1 (some centres undefined) | 0.25 µg/mL | 16 µg/mL | 4 µg/mL | 2 µg/mL | < 0.125 µg/mL | 0.25 µg/mL (≈ 0.147 µM) | 0.25 µg/mL (≈ 0.147 µM) | MIC (Enterococcus faecalis [16]): 128 µg/mL; MIC (Enterococcus faecium [17]): > 128 µg/mL |
| CCCCc1ccc(CNC2[C@H](Oc3c4cc5cc3Oc3ccc(cc3Cl)[C@@H](O)C3NC(=O)[C@H](NC(=O)[C@@H]5NC(=O)[C@H]5NC(=O)[C@@H](Cc6ccc(cc6)O4)NC(=O)[C@H](N(C)Cc4ccc(CCCC)cc4)c4ccc(O)c(c4)Oc4cc(O)c(Cl)c5c4)c4ccc(O)c(c4)-c4c(O[C@H]5O[C@H](CO)[C@@H](O)[C@H](O)[C@@H]5O)cc(O)cc4[C@@H](C(=O)NCCCN(C)C)NC3=O)OC(C(=O)NCCCN(C)C)C(O)[C@@H]2O)cc1 (some centres undefined) | 0.25 µg/mL | 2 µg/mL | 2 µg/mL | 0.5 µg/mL |  | 2 µg/mL (≈ 0.995 µM) | 1 µg/mL (≈ 0.497 µM) | MIC (Enterococcus faecium [18]): 16 µg/mL; MIC (Enterococcus faecalis [19]): < 0.125 µg/mL; MIC (Enterococcus faecalis [20]): 8 µg/mL (≈ 3.98 µM) |
| CN[C@H]1C(=O)N[C@@H]2Cc3ccc(cc3)Oc3cc4cc(c3O[C@@H]3OC(C(=O)O)C(O)[C@H](O)C3N)Oc3ccc(cc3Cl)[C@@H](O)C3NC(=O)[C@H](NC(=O)[C@@H]4NC(=O)[C@@H](NC2=O)c2cc(cc(O)c2Cl)Oc2cc1ccc2O)c1ccc(O)c(c1)-c1c(O[C@H]2O[C@H](CO)[C@@H](O)[C@H](O)[C@@H]2O)cc(O)cc1[C@@H](C(=O)O)NC3=O (some centres undefined) |  |  |  |  |  | 16 µg/mL (≈ 10.3 µM) | 16 µg/mL (≈ 10.3 µM) | MIC (Enterococcus faecalis [21]): 8 µg/mL; MIC (Enterococcus faecium [22]): > 128 µg/mL; MIC (Enterococcus faecalis [23]): > 128 µg/mL; MIC (Enterococcus faecium [24]): 8 µg/mL |

Reference: ChEMBL document CHEMBL1142788, “Synthesis and antibacterial activity of alkyl derivatives of the glycopeptide antibiotic A40926 and their amides” (2005)
